Measurements published in patent US12679878B2, “CRF2 receptor agonists and their use in therapy” (SANOFI, priority 2020, dated 2026).
Read-outs that look alike come from different tables or passages of the source. Starred links: 1 amine or outer side, 2 acyl side, 3 side chain; linkers in the order of their positions; H or OH if unused. Non-standard residues stand in square brackets, D forms with d. Residues, ends and D or L forms follow the SMILES beside them. Groups on a side chain read outwards from the residue. *: point of attachment. C18 diacid = O=C(O)CCCCCCCCCCCCCCCCC(=O)*; γGlu = O=C(O)[C@H](CCC(=O)[*:2])N[*:1]; Palmitoyl = CCCCCCCCCCCCCCCC(=O)*; AEEA = NCCOCCOCC(=O)O; Aib = CC(C)(N)C(=O)O

What was measured:
Assay type in all cases: cell-based
[1] = target: T1, CRF1R receptor (Homo sapiens, UniProt P34998); assay: cAMP activity at anti-target CRF1R, CRF1R-overexpression CHO cell line (Example 9); conditions: for EC50: 0% HSA
T1 construct: host or cells: CHO-K1 clone 2
T1 sequence (P34998 24-415): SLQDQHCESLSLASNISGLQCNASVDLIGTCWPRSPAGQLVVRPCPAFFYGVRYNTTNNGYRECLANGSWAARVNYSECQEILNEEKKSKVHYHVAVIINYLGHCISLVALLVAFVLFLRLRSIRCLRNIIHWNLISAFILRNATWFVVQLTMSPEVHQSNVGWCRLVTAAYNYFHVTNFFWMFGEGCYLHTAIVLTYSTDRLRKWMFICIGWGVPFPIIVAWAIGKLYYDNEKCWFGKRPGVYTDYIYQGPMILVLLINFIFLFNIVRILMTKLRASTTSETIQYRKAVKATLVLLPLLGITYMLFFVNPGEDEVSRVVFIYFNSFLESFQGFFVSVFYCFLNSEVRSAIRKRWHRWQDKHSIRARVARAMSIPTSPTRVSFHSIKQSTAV
Method in brief: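 Using thawed CRF1R-overexpressing CHO cells at 2000 per well, compound is applied for 30 min at RT in HBSS/HEPES buffer with IBMX. Cellular cAMP content is determined via HTRF, and percent activity is calculated against 1000 nM UCN2 defined as 100%.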

[2] = system: rat CRF2R α receptor; assay: cAMP agonism at rat CRF2R α receptor in A7R5 rat aortic smooth muscle cells (Example 8); conditions: cAMP HTRF, A7R5 rat aortic smooth muscle cell line, 0% HSA
Method in brief: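 Potency (EC50) is the concentration reaching half-maximal activation, with responses scaled so that 1000 nM urocortin 2 equals 100%. Intracellular cAMP was quantified by homogeneous time-resolved fluorescence at 665/620 nm, 1 h after lysis-buffer reagents. Compound stimulation lasted 30 min at room temperature on 2000 IBMX-treated (2 mM) cells per well in HEPES-buffered HBSS.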

[3] = target: T2, human CRF2α receptor (Homo sapiens, UniProt Q13324); assay: cAMP agonism at human CRF2 α receptor in TeloHEAC cells (Example 7); conditions: cAMP HTRF, TeloHEAC cells stably expressing human CRF2 α
T2 construct: expressed in transfected cells; host or cells: TeloHEAC
T2 sequence (Q13324 1-411): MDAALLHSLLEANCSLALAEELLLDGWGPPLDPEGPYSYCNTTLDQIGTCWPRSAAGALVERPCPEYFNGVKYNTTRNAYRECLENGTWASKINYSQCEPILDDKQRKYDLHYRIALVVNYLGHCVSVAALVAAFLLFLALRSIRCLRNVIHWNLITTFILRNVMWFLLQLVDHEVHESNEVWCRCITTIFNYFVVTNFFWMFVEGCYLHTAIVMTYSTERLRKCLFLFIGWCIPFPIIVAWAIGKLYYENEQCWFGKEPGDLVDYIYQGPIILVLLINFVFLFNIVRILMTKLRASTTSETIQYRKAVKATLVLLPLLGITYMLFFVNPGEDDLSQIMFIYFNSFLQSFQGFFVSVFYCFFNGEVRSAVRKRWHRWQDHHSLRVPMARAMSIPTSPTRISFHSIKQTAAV
Method in brief: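 HTRF ratio 665/620 nm, read 1 h after lysis reagents, reports cAMP. Cells: thawed stocks, 2000/well, 30 min RT with compound in HBSS, 20 mM HEPES, 0 or 0.1% HSA, 2 mM IBMX. Activity normalised to UCN2 1000 nM = 100%; EC50 from half-maximal activation.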

[4] = CRF1R-overexpression CHO cell line
[5] = CRF1R-overexpression CHO cell line, read-out: Emax (%)
[6] = 0% HSA, read-out: EC50 [nM], 0% HSA

EC50 [1, 4]	Emax [1, 5]	EC50 [2]	EC50 [3, 6]	Compound	Emax ([1]; CHO)	EC50 ([3]; 0.1% HSA, read-out: EC50 [nM], 0.1% HSA)
> 1000 nM	16%	0.11 nM	0.2 nM	CCCCCCCCCCCCCCCC(=O)N[C@@H](CCC(=O)NCCCC[C@H](NC(=O)[C@@H](NC(=O)[C@H](CCCCN)NC(=O)[C@@H](NC(=O)[C@@H]1CCCN1C(=O)[C@@H](NC(=O)[C@H](CC(=O)O)NC(=O)[C@H](CC(C)C)NC(=O)[C@H](CO)NC(=O)[C@H](CC(C)C)NC(=O)[C@@H](NC(=O)[C@@H](N)Cc1ccccc1)[C@@H](C)O)C(C)C)[C@@H](C)O)[C@@H](C)CC)C(=O)N[C@@H](CCC(N)=O)C(=O)N[C@@H](CCCCN)C(=O)N[C@@H](CC(C)C)C(=O)N[C@@H](CC(C)C)C(=O)N[C@@H](CCCCN)C(=O)N[C@@H](CCC(N)=O)C(=O)N[C@@H](CCC(=O)O)C(=O)N[C@@H](CCCCN)C(=O)N[C@@H](CCC(N)=O)C(=O)N[C@@H](CCCCN)C(=O)N[C@@H](CCCCN)C(=O)N[C@@H](CCC(N)=O)C(=O)N[C@@H](CCCNC(=N)N)C(=O)N[C@@H](CCC(N)=O)C(=O)N[C@@H](CCCCN)C(=O)N[C@@H](C)C(=O)N[C@@H](CCCCN)C(=O)N[C@H](C(=O)N[C@@H](C)C(=O)N[C@@H](C)C(=O)N[C@@H](CCC(N)=O)C(=O)N[C@H](C(=O)N[C@@H](CC(C)C)C(=O)N[C@@H](C)C(=O)N[C@@H](CCC(N)=O)C(=O)N[C@H](C(N)=O)C(C)C)[C@@H](C)CC)[C@@H](C)O)C(=O)O [compound 8] (H-FTLSLDVPTKIK([γGlu-Palmitoyl])QKLLKQEKQKKQRQKAKTAAQILAQV-NH2; N-terminus assumed)		
> 1000 nM	12.7%	0.01 nM	0.02 nM	CCCCCCCCCCCCCCCC(=O)N[C@@H](CCC(=O)NCCCC[C@H](NC(=O)[C@@H](NC(=O)[C@H](CCCCN)NC(=O)[C@@H](NC(=O)[C@@H]1CCCN1C(=O)[C@@H](NC(=O)[C@H](CC(=O)O)NC(=O)[C@H](CC(C)C)NC(=O)[C@H](CO)NC(=O)[C@H](CC(C)C)NC(=O)[C@@H](NC(=O)[C@@H](N)Cc1ccccc1)[C@@H](C)O)C(C)C)[C@@H](C)O)[C@@H](C)CC)C(=O)N[C@@H](CCC(N)=O)C(=O)N[C@@H](CCCCN)C(=O)N[C@@H](CC(C)C)C(=O)N[C@@H](CC(C)C)C(=O)N[C@@H](CCCCN)C(=O)N[C@@H](CCC(N)=O)C(=O)N[C@@H](CCC(=O)O)C(=O)N[C@@H](CCCCN)C(=O)N[C@@H](CCC(N)=O)C(=O)N[C@@H](CCCCN)C(=O)N[C@@H](CCCCN)C(=O)N[C@@H](CCC(N)=O)C(=O)N[C@@H](CCCNC(=N)N)C(=O)N[C@@H](CCC(N)=O)C(=O)N[C@@H](CCCCN)C(=O)N[C@@H](C)C(=O)N[C@@H](CCCCN)C(=O)N[C@H](C(=O)N[C@@H](CC(N)=O)C(=O)N[C@@H](C)C(=O)N[C@@H](CCC(N)=O)C(=O)N[C@H](C(=O)N[C@@H](CC(C)C)C(=O)N[C@@H](C)C(=O)N[C@@H](CCC(N)=O)C(=O)N[C@H](C(N)=O)C(C)C)[C@@H](C)CC)[C@@H](C)O)C(=O)O [compound 11] (H-FTLSLDVPTKIK([γGlu-Palmitoyl])QKLLKQEKQKKQRQKAKTNAQILAQV-NH2)		
> 1000 nM	7.75%	1.38 nM	0.88 nM	CCCCCCCCCCCCCCCC(=O)N[C@@H](CCC(=O)NCCCC[C@H](NC(=O)[C@@H](NC(=O)[C@H](CCCCN)NC(=O)[C@@H](NC(=O)[C@@H]1CCCN1C(=O)[C@@H](NC(=O)[C@H](CC(=O)O)NC(=O)[C@H](CC(C)C)NC(=O)[C@H](CO)NC(=O)[C@H](CC(C)C)NC(=O)[C@@H](NC(=O)[C@@H](N)Cc1ccccc1)[C@@H](C)O)C(C)C)[C@@H](C)O)[C@@H](C)CC)C(=O)N[C@@H](CCC(N)=O)C(=O)N[C@@H](CCCCN)C(=O)N[C@@H](CC(C)C)C(=O)N[C@@H](Cc1ccccc1)C(=O)N[C@@H](CCCCN)C(=O)N[C@@H](CCC(N)=O)C(=O)N[C@@H](C)C(=O)N[C@@H](CCCCN)C(=O)N[C@@H](CCC(N)=O)C(=O)N[C@@H](CCCCN)C(=O)N[C@@H](CCCCN)C(=O)N[C@@H](CCC(N)=O)C(=O)N[C@@H](CCCNC(=N)N)C(=O)N[C@@H](CCC(N)=O)C(=O)N[C@@H](CCCCN)C(=O)N[C@@H](C)C(=O)N[C@@H](CCCCN)C(=O)N[C@H](C(=O)N[C@@H](CC(N)=O)C(=O)N[C@@H](C)C(=O)N[C@@H](CCC(N)=O)C(=O)N[C@H](C(=O)N[C@@H](CC(C)C)C(=O)N[C@@H](C)C(=O)N[C@@H](CCCNC(=N)N)C(=O)N[C@H](C(N)=O)C(C)C)[C@@H](C)CC)[C@@H](C)O)C(=O)O [compound 15] (H-FTLSLDVPTKIK([γGlu-Palmitoyl])QKLFKQAKQKKQRQKAKTNAQILARV-NH2; N-terminus assumed)		
> 1000 nM	5.88%	8.97 nM	0.52 nM	CC[C@H](C)[C@H](N)C(=O)N[C@H](C(=O)N[C@@H](CC(C)C)C(=O)N[C@@H](CO)C(=O)N[C@@H](CC(C)C)C(=O)N[C@@H](CC(=O)O)C(=O)N[C@H](C(=O)N1CCC[C@H]1C(=O)N[C@H](C(=O)N[C@@H](CCCCN)C(=O)N[C@@H](CC(C)C)C(=O)N[C@@H](CCCCNC(=O)COCCOCCNC(=O)COCCOCCNC(=O)CC[C@H](NC(=O)CCCCCCCCCCCCCCCCC(=O)O)C(=O)O)C(=O)N[C@@H](CCC(N)=O)C(=O)N[C@H](C(=O)N[C@@H](CC(C)C)C(=O)N[C@@H](CC(C)C)C(=O)N[C@@H](CCC(=O)O)C(=O)N[C@@H](CCC(N)=O)C(=O)N[C@@H](C)C(=O)N[C@@H](CCCCN)C(=O)N[C@@H](CCC(N)=O)C(=O)N[C@@H](CCCCN)C(=O)NC(C)(C)C(=O)N[C@@H](CC(C)C)C(=O)N[C@@H](CCCNC(=N)N)C(=O)N[C@@H](C)C(=O)N[C@@H](CCC(N)=O)C(=O)N[C@@H](C)C(=O)N[C@@H](CCC(=O)O)C(=O)N[C@H](C(=O)N[C@@H](CC(N)=O)C(=O)N[C@H](C(=O)N[C@@H](CCCNC(=N)N)C(=O)N[C@H](C(=O)N[C@@H](CC(C)C)C(=O)N[C@@H](CCC(=O)O)C(=O)N[C@@H](CCCNC(=N)N)C(=O)N[C@H](C(N)=O)C(C)C)[C@@H](C)CC)C(C)C)[C@@H](C)O)[C@@H](C)CC)[C@@H](C)CC)C(C)C)C(C)C [compound 46] (H-IVLSLDVPIKLK([AEEA-AEEA-γGlu-C18 diacid])QILLEQAKQK[Aib]LRAQAETNVRILERV-NH2; N-terminus assumed)		

Compound	EC50 [1, 4]	Emax [1, 5]	EC50 [2]	EC50 [3, 6]	Emax ([1]; CHO)	EC50 ([3]; 0.1% HSA, read-out: EC50 [nM], 0.1% HSA)
CC[C@H](C)[C@H](NC(=O)[C@H](CCC(N)=O)NC(=O)[C@H](CCC(=O)O)NC(=O)[C@H](CC(C)C)NC(=O)[C@H](CC(C)C)NC(=O)[C@H](CCC(N)=O)NC(=O)[C@H](CCCCN)NC(=O)[C@H](CC(N)=O)NC(=O)[C@H](CCCCN)NC(=O)[C@H](CCC(=O)O)NC(=O)[C@H](C)NC(=O)[C@H](CCC(N)=O)NC(=O)[C@H](CCC(N)=O)NC(=O)[C@H](CCCNC(=N)N)NC(=O)[C@H](CCC(=O)O)NC(=O)[C@H](CCCCN)NC(=O)[C@H](CCCCN)NC(=O)[C@H](CCC(N)=O)NC(=O)[C@H](CCCCN)NC(=O)[C@H](CCC(N)=O)NC(=O)[C@H](CCC(N)=O)NC(=O)[C@H](CCCCN)NC(=O)[C@H](Cc1ccccc1)NC(=O)[C@H](CC(C)C)NC(=O)[C@@H](NC(=O)[C@H](CCC(N)=O)NC(=O)[C@H](CCCCNC(=O)COCCOCCNC(=O)COCCOCCNC(=O)CC[C@H](NC(=O)CCCCCCCCCCCCCCCCC(=O)O)C(=O)O)NC(=O)[C@@H](NC(=O)[C@H](CCCCN)NC(=O)[C@@H](NC(=O)[C@@H]1CCCN1C(=O)[C@@H](NC(=O)[C@H](CC(=O)O)NC(=O)[C@H](CC(C)C)NC(=O)[C@H](CO)NC(=O)[C@H](CC(C)C)NC(=O)[C@@H](NC(=O)[C@@H](N)Cc1ccccc1)[C@@H](C)O)C(C)C)[C@@H](C)O)[C@@H](C)CC)[C@@H](C)CC)C(N)=O [compound 13] (H-FTLSLDVPTKIK([AEEA-AEEA-γGlu-C18 diacid])QILFKQQKQKKERQQAEKNKQLLEQI-NH2; N-terminus assumed)			2.5 nM	0.98 nM	4.3%	64.1 nM
